# Results as given in patent publication US4021553A, “5,6-Diaryl-1,2,4-triazines as topically-active anti-inflammatory agents” (Eli Lilly and Company, priority 1976, dated 1977).
# System: erythemic response (ultraviolet-induced erythema)
# Assay: UV-induced erythemic response inhibition in guinea pigs, topical (modification of the method of Winder)
# Type: in vivo, Albino guinea pigs
# Settings: dose 100 mcg./12 cm.^2, in ethanol, weighted scores 1.0-2.5 hours
# Method: A modification of the method of Winder was used to measure the anti-inflammatory activities of the compounds employed in the method of the present invention; see C. V. Winder, et al., Arch. Int. Pharmacodyn., 116, 261 (1958). Albino guinea pigs of either sex, weighing 225-300 grams, were shaved on the back and chemically depilated (Nair® Lotion Hair Remover, Carter Products, N.Y., N.Y.) 18-20 hours before exposure to ultraviolet light. The animals, in groups of four and bearing identifying ear tags, were treated by applying to an area of skin of about 12 cm.^2 a solution of test compound dissolved in 0.1 cc. of ethanol. The control treatment consisted of administering only the drug vehicle, ethanol, to a group of four animals. Groups of four animals each were given different treatment levels of test compound to obtain dose responses. Random order and blind administration of the test compounds were employed; drug idenfication was not made until after all animals were graded. Immediately prior to drug application, the animals were exposed in groups of four to a high-intensity ultraviolet light for a measured period of time (usually 4-7 seconds). The ultraviolet light source, a Hanovia Lamp (Kroymayer-Model 10), was placed in contact with the skin of the animal's back. A gummed notebook paper reinforcement was affixed to the lamp lens to provide an unexposed area of contrast for grading the erythema. Beginning one hour after exposure and thereafter at half-hour intervals for another 1 1/2 hours, the degree of resulting erythema was graded by an arbiturary scoring system based upon the degree of contrast and redness formed. […]
# Total scores from each treatment group of four guinea pigs were prepared to the control treatment, and the percent inhibition was calculated as follows: [formula]
# A dose-response graph was obtained by plotting dose versus percent inhibition, the points representing the average of each treatment group of four guinea pigs. […] The plotted or calculated ED50 for the particular compound tested, where available, is given in the last column of Table I.
row,Structure (SMILES),% Inhibition compared with control (erythemic response) [%]
1,"COc1ccc(-c2nnc(SCc3ccccc3)nc2-c2ccc(OC)cc2)cc1 [CH2 C6 H5 S 1 OCH3 OCH3, 3-benzylthio-5,6-bis(4-methoxyphenyl)-1,2,4-triazine]",49
2,"COc1ccc(-c2nnc(SC(C)C)nc2-c2ccc(OC)cc2)cc1 [CH(CH3)2 S 1 OCH3 OCH3, 3-isopropylthio-5,6-bis(4-methoxyphenyl)-1,2,4-triazine]",35
3,"COc1ccc(-c2ncnnc2-c2ccc(OC)cc2)cc1 [H -- -- OCH3 OCH3, 5,6-bis(4-methoxyphenyl)-1,2,4-triazine]",53
